# Numbers after ± are expanded uncertainties.
# Columns and labels:
# [1] = DTA
# [2] = Molar enthalpy of transition or fusion; settings: DSC
Structure (SMILES),Triple point temperature ([1]; Crystal 1) [K],Glass transition temperature ([1]; Glass) [°C],Molar enthalpy of transition or fusion ([2]; Crystal 1) [kcal/mol],Triple point temperature ([1]; Crystal 2) [K],Triple point temperature ([1]; Crystal 3) [K],Molar enthalpy of transition or fusion ([2]; Crystal 2) [kcal/mol],Molar enthalpy of transition or fusion ([2]; Crystal 3) [kcal/mol]
CCCCCCOCn1cc[n+](COCCCCCC)c1.O=S(=O)([N-]S(=O)(=O)C(F)(F)F)C(F)(F)F,273.8 ± 5.5,-81.3 ± 3.9,3.82 ± 0.12,,,,
CCCCCCOCn1cc[n+](COCCCCCC)c1.F[B-](F)(F)F,309.5 ± 6.2,,3.06 ± 0.12,243.6 ± 4.9,142.6 ± 2.9,0.167 ± 0.0717,0.478 ± 0.0717

# Source: the NIST ThermoML archive (doi:10.1016/j.fluid.2006.07.005)
